Where two headings read alike, the source gives them in different places.
Tests used:
SARS-CoV-2 PLpro = SARS-CoV-2 PLpro (Severe acute respiratory syndrome coronavirus 2, UniProt P0DTD1); experiment: FRET-based PLpro enzymatic assay; assay type: biochemical
Experimental: The SARS-CoV-2 PL^pro enzymatic assays were carried out as follows. The assay was assembled in 96-well plates with 100 μl of 200 nM PL^Pro protein in PL^Pro reaction buffer [50 mM Hepes (pH 7.5), 0.01% Triton X-100, and 5 mM DTT]. Then, 1 μl of testing compound at various concentrations was added to each well and incubated at 30° C. for 30 minutes. The enzymatic reaction was initiated by adding 1 μl of 1 mM FRET substrate (the final substrate concentration is 10 μM). The reaction was monitored in a Cytation 5 image reader with filters for excitation at 360/40 nm and emission at 460/40 nm at 30° C. for 1 hour. The initial velocity of the enzymatic reaction with and without testing compounds was calculated by linear regression for the first 15 minutes of the kinetic progress curve. The IC50 values were calculated by plotting the initial velocity against various concentrations of testing compounds with a dose-response function in Prism 8 software.

[1] = Cytotoxicity assay in Vero E6 cells (neutral red uptake); assay type: cell-based; conditions: African green monkey
Experimental: Briefly, 80.000 cells/ml of the tested cell lines were dispensed into 96-well cell culture plates at 100 μl per well Twenty-four hours later, the growth medium was removed and washed with 150 μl of PBS buffer. Two hundred microliters of fresh serum-free medium containing serial diluted compounds was added to each well. After incubating for 2 days at 37° C., the medium was removed and replaced with 100 μl of DMEM medium containing neutral red (40 μg/ml) and incubated for 2 to 4 hours at 37° C. The amount of neutral red taken up was determined by measuring the absorbance at 540 nm using a Multiskan FC Microplate Photometer (Thermo Fisher Scientific) The CC50 values were calculated from best-fit dose-response curves with variable slope in Prism 8.

[2] = 200 nM PLpro, 10 μM FRET substrate, 30 min preincubation at 30° C., read-out: IC50
[3] = Vero E6 cells, 2 days at 37° C., neutral red uptake, read-out: Vero CC50

Work on Cc1ccc(OCCN(C)C)cc1C(=O)N[C@H](C)c1cc(OCc2c(F)c(F)c(F)c(F)c2F)nc2ccccc12 [Example 58, (R)-5-(2-(dimethylamino)ethoxy)-2-methyl-N-(1-(2-((perfluorophenyl)methoxy)quinolin-4-yl)ethyl)benzamide] yielded an IC50 (SARS-CoV-2 PLpro; [2]) of over 5 µM and a CC50 at 2 days [1, 3] of over 50 µM.

For Cc1ccc(OCCN(C)C)cc1C(=O)N[C@@H](C)c1cc(-c2cccs2)nc2ccccc12 [Example 2, (S)-5-(2-(dimethylamino)ethoxy)-2-methyl-N-(1-(2-(thiophen-2-yl)quinolin-4-yl)ethyl)benzamide], the IC50 (SARS-CoV-2 PLpro; [2]) was 1 to 5 µM and the CC50 at 2 days [1, 3] was 11.4 ± 0.79 µM.

Cc1ccc(OCCN(C)C)cc1C(=O)N[C@H](C)c1cc(-c2cnn(CCN(C)C)c2)nc2ccccc12 [Example 12, (R)-5-(2-(dimethylamino)ethoxy)-N-(1-(2-(1-(2-(dimethylamino)ethyl)-1H-pyrazol-4-yl)quinolin-4-yl)ethyl)-2-methylbenzamide] showed an IC50 (SARS-CoV-2 PLpro; [2]) of under 0.5 µM and a CC50 at 2 days [1, 3] of 114 ± 18.7 µM.

Cc1ccc(C2=CCN(C)CC2)cc1C(=O)N[C@H](C)c1cc(-c2cnn(C)c2)nc2ccccc12 [Example 86, (R)-2-methyl-5-(1-methyl-1,2,3,6-tetrahydropyridin-4-yl)-N-(1-(2-(1-methyl-1H-pyrazol-4-yl)quinolin-4-yl)ethyl)benzamide] gave an IC50 (SARS-CoV-2 PLpro; [2]) of 1 to 5 µM and a CC50 at 2 days [1, 3] of 92.7 ± 4.59 µM.

With Cc1ccc(N(C)C2CN(C)C2)cc1C(=O)N[C@H](C)c1cc(-c2cnn(C)c2)nc2ccccc12 [Example 88, (R)-2-methyl-5-(methyl(1-methylazetidin-3-yl)amino)-N-(1-(2-(1-methyl-1H-pyrazol-4-yl)quinolin-4-yl)ethyl)benzamide] the IC50 (SARS-CoV-2 PLpro; [2]) was 1 to 5 µM and the CC50 at 2 days [1, 3] was 97.4 ± 6.51 µM.

In the case of Cc1ccc(OCCN(C)C)cc1C(=O)N[C@H](C)c1cc(-c2cnn(CC(=O)O)c2)nc2ccccc12 [Example 53, (R)-2-(4-(4-(1-(5-(2-(dimethylamino)ethoxy)-2-methylbenzamido)ethyl)quinolin-2-yl)-1H-pyrazol-1-yl)acetic acid], the IC50 (SARS-CoV-2 PLpro; [2]) is reported as under 0.5 µM and the CC50 at 2 days [1, 3] is reported as over 250 µM.

COc1cc(-c2cc([C@@H](C)NC(=O)c3cc(OCCN(C)C)ccc3C)c3ccccc3n2)cs1 [Example 68, (R)-5-(2-(dimethylamino)ethoxy)-N-(1-(2-(5-methoxythiophene-3-yl)quinolin-4-yl)ethyl)-2-methylbenzamide] gave an IC50 (SARS-CoV-2 PLpro; [2]) of under 0.5 µM and a CC50 at 2 days [1, 3] of 13.9 ± 4.32 µM.

Work on Cc1ccc(OCC2CN(C)C2)cc1C(=O)N[C@H](C)c1cc(-c2cnn(C)c2)nc2ccccc12 [Example 91, (R)-2-methyl-N-(1-(2-(1-methyl-1H-pyrazol-4-yl)quinolin-4-yl)ethyl)-5-((1-methylazetidin-3-yl)methoxy)benzamide] yielded an IC50 (SARS-CoV-2 PLpro; [2]) of under 0.5 µM and a CC50 at 2 days [1, 3] of 96.1 ± 5.36 µM.

For Cc1ccc(O[C@H]2CCN(C)C2)cc1C(=O)N[C@H](C)c1cc(-c2cnn(C)c2)nc2ccccc12 [Example 82, 2-methyl-N—((R)-1-(2-(1-methyl-1H-pyrazol-4-yl)quinolin-4-yl)ethyl)-5-(((S)-1-methyl-pyrrolidin-3-yl)oxy)benzamide], the IC50 (SARS-CoV-2 PLpro; [2]) was under 0.5 µM and the CC50 at 2 days [1, 3] was 48.3 ± 2.9 µM.

Compound Cc1ccc(OCCN(C)C)cc1C(=O)N[C@@H](C)c1cc(-c2ccnn2C)nc2ccccc12 [Example 21, (S)-5-(2-(dimethylamino)ethoxy)-2-methyl-N-(1-(2-(1-methyl-1H-pyrazol-5-yl)quinolin-4-yl)ethyl)benzamide] has an IC50 (SARS-CoV-2 PLpro; [2]) of 0.5 to 1 µM and a CC50 at 2 days [1, 3] of 64.7 ± 8.94 µM.

In the case of CCn1ccc(-c2cc([C@@H](C)NC(=O)c3cc(OC[C@@H]4CCCN4C)ccc3C)c3ccccc3n2)n1 [Example 109, N—((R)-1-(2-(1-ethyl-1H-pyrazol-3-yl)quinolin-4-yl)ethyl)-2-methyl-5-(((S)-1-methylpyrrolidin-2-yl)methoxy)benzamide], the CC50 at 2 days [1, 3] is reported as 27 ± 1.66 µM.

In the case of CCn1ccc(-c2cc([C@@H](C)NC(=O)c3cc(N4CCN(C)[C@H](C)C4)ccc3C)c3ccccc3n2)n1 [Example 104, 5-((R)-3,4-dimethylpiperazin-1-yl)-N—((R)-1-(2-(1-ethyl-1H-pyrazol-3-yl)quinolin-4-yl)ethyl)-2-methylbenzamide], the IC50 (SARS-CoV-2 PLpro; [2]) is reported as under 0.5 µM and the CC50 at 2 days [1, 3] is reported as 30.5 ± 2.21 µM.

With Cc1ccc(OCCN(C)C)cc1C(=O)N[C@H](C)c1cc(-c2cncs2)nc2ccccc12 [Example 5, (R)-5-(2-(dimethylamino)ethoxy)-2-methyl-N-(1-(2-(thiazol-5-yl)quinolin-4-yl)ethyl)benzamide] the IC50 (SARS-CoV-2 PLpro; [2]) was under 0.5 µM and the CC50 at 2 days [1, 3] was 44.7 ± 11.7 µM.

In the case of CCn1ccc(-c2cc([C@@H](C)NC(=O)c3cc(N4CC5CCC(C4)N5C)ccc3C)c3ccccc3n2)n1 [Example 106, N—((R)-1-(2-(1-ethyl-1H-pyrazol-3-yl)quinolin-4-yl)ethyl)-2-methyl-5-(8-methyl-3,8-diazabicyclo[3.2.1]octan-3-yl)benzamide], the IC50 (SARS-CoV-2 PLpro) is reported as under 0.5 µM and the CC50 at 2 days [1] is reported as 31.3 ± 7.45 µM.

For Cc1ccc(OC[C@@H]2C[C@@H](F)CN2C)cc1C(=O)NC1(c2cc(-c3cnn(C)c3)nc3ccccc23)CC1 [Example 114, 5-(((2S,4R)-4-fluoro-1-methylpyrrolidin-2-yl)methoxy)-2-methyl-N-(1-(2-(1-methyl-1H-pyrazol-4-yl)quinolin-4-yl)cyclopropyl)benzamide], the IC50 (SARS-CoV-2 PLpro; [2]) was under 0.5 µM and the CC50 at 2 days [1, 3] was 51.3 ± 6.52 µM.

Cc1ccc(OCCN(C)C)cc1C(=O)N[C@H](C)c1cc(-c2cncnc2)nc2ccccc12 [Example 57, (R)-5-(2-(dimethylamino)ethoxy)-2-methyl-N-(1-(2-(pyrimidin-5-yl)quinolin-4-yl)ethyl)benzamide] gave an IC50 (SARS-CoV-2 PLpro; [2]) of 0.5 to 1 µM and a CC50 at 2 days [1, 3] of 74.6 ± 17.4 µM.

In the case of Cc1ccc(OCCN(C)C)cc1C(=O)N[C@H](C)c1cc(-c2ccn[nH]2)nc2ccccc12 [Example 15, (R)—N-(1-(2-(1H-pyrazol-5-yl)quinolin-4-yl)ethyl)-5-(2-(dimethylamino)ethoxy)-2-methylbenzamide], the IC50 (SARS-CoV-2 PLpro; [2]) is reported as under 0.5 µM and the CC50 at 2 days [1, 3] is reported as 63.2 ± 9.51 µM.

In the case of COCCn1cc(-c2cc([C@@H](C)NC(=O)c3cc(OCCN(C)C)ccc3C)c3ccccc3n2)cn1 [Example 6, (R)-5-(2-(dimethylamino)ethoxy)-N-(1-(2-(1-(2-methoxyethyl)-1H-pyrazol-4-yl)quinolin-4-yl)ethyl)-2-methylbenzamide], the IC50 (SARS-CoV-2 PLpro; [2]) is reported as under 0.5 µM and the CC50 at 2 days [1, 3] is reported as 200 ± 86.4 µM.

Work on Cc1ccc(OCCN(C)C)cc1C(=O)N[C@H](C)c1cc(-c2cnn(C3CCC3)c2)nc2ccccc12 [Example 64, (R)—N-(1-(2-(1-cyclobutyl-1H-pyrazol-4-yl)quinolin-4-yl)ethyl)-5-(2-(dimethylamino)ethoxy)-2-methylbenzamide] yielded an IC50 (SARS-CoV-2 PLpro; [2]) of under 0.5 µM and a CC50 at 2 days [1, 3] of 25.3 ± 5.82 µM.

With Cc1ccc(N2C[C@H]3CN(C)C[C@H]3C2)cc1C(=O)NC1(c2cc(-c3cnn(C)c3)nc3ccccc23)CC1 [Example 113, 2-methyl-N-(1-(2-(1-methyl-1H-pyrazol-4-yl)quinolin-4-yl)cyclopropyl)-5-((3aR,6aS)-5-methylhexahydropyrrolo[3,4-c]pyrrol-2(1H)-yl)benzamide] the CC50 at 2 days [1, 3] was 56.1 µM.

In the case of Cc1ccc(N2CCN(C)CC2)cc1C(=O)NC1(c2cc(-c3cnn(C)c3)nc3ccccc23)CC1 [Example 111, 2-methyl-N-(1-(2-(1-methyl-1H-pyrazol-4-yl)quinolin-4-yl)cyclopropyl)-5-(4-methylpiperazin-1-yl)benzamide], the CC50 at 2 days [1, 3] is reported as over 150 µM.

With Cc1ccc(OCCN(C)C)cc1C(=O)N[C@H](C)c1cc(-c2cnc3[nH]ncc3c2)nc2ccccc12 [Example 49, (R)—N-(1-(2-(1H-pyrazolo[3,4-b]pyridin-5-yl)quinolin-4-yl)-ethyl)-5-(2-(dimethylamino)-ethoxy)-2-methylbenzamide] the CC50 at 2 days [1, 3] was over 250 µM.

— patent US20240382494A1, “THERAPEUTIC COMPOUNDS” (priority 2023, published 2024)
